Converted amounts (≈) assume the structure as drawn. Read-outs that look alike come from different tables or passages of the source.
Assays:
[1] = test system: MDRAB; assay: MIC determination, microdilution broth method; type: cell-based, Acinetobacter baumannii; conditions: for MIC: read-out: MIC
Method: Determination methods of a Minimal Inhibitory Concentration (MIC) and a Minimum Bactericidal Concentration (MBC) of a test product: the MIC and the MBC of the Pithecellobium clypearia Benth water or ethanol extract to the MDRAB are determined by a microdilution broth method. And it is operated by referring to the microdilution broth method recommended by National Committee for Clinical Laboratory Standards (NCCLS).

[2] = test system: ATCC27853; assay: MIC determination, control strain; type: cell-based
Method: Determination methods of a Minimal Inhibitory Concentration (MIC) and a Minimum Bactericidal Concentration (MBC) of a test product: the MIC and the MBC of the Pithecellobium clypearia Benth water or ethanol extract to the MDRAB are determined by a microdilution broth method.

[3] = test system: MDRPA; assay: Checkerboard assay (combined-use MIC, FIC); type: cell-based, Pseudomonas aeruginosa; conditions: for FIC, all strains / MIC50 of the antibiotic after combined use / MIC90 of the antibiotic after combined use / reduction of the antibiotic's MIC50 vs single use / reduction of the antibiotic's MIC90 vs single use / share of strains with FIC ≤ 0.5: 20 MDRPAs; for combined-use MIC: EA (P. clypearia water extract) combined with IMP
Summary of the method: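 Checkerboard combinations of S20b and antibiotic run per NCCLS method against ESBL E. coli, MDR A. baumannii and MDR P. aeruginosa.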

[4] = single use, 20 MDRABs, EA=10% ethanol extract
[5] = single use, 20 MDRABs, EA=water extract
[6] = single use, 20 MDRABs, section of the 95% ethanol extract
[7] = antibiotic with 10% ethanol extract
[8] = antibiotic with 60% ethanol extract
[9] = antibiotic with 95% ethanol extract
[10] = antibiotic with EA (water extract)

MIC ([1]; Acinetobacter baumannii, strain A19, single use, EA=10% ethanol extract): 32 µg/mL (≈ 107 µM)
MIC ([1]; Acinetobacter baumannii, strain A19, single use, EA=water extract): 32 µg/mL (≈ 107 µM)
MIC ([1]; Acinetobacter baumannii, strain A20, EA=60% ethanol extract): 32 µg/mL (≈ 107 µM)
MIC ([1]; Acinetobacter baumannii, strain A20, EA=95% ethanol extract): 32 µg/mL (≈ 107 µM)
MIC ([1]; Acinetobacter baumannii, strain A20, single use, EA=10% ethanol extract): 32 µg/mL (≈ 107 µM)
MIC ([1]; Acinetobacter baumannii, strain A20, single use, EA=water extract): 32 µg/mL (≈ 107 µM)
MIC50 ([1]; Acinetobacter baumannii, single use, 20 MDRABs, section of the 60% ethanol extract, read-out: MIC50): 32 µg/mL (≈ 107 µM)
MIC90 ([1]; Acinetobacter baumannii, single use, 20 MDRABs, section of the 60% ethanol extract, read-out: MIC90): 32 µg/mL (≈ 107 µM)
MIC50 ([1]; MDRABs, EA=60% ethanol extract): 32 µg/mL (≈ 107 µM)
MIC90 ([1]; MDRABs, EA=60% ethanol extract): 32 µg/mL (≈ 107 µM)
MIC Range ([1]; MDRABs, EA=60% ethanol extract): 1 to 32 µg/mL
MIC50 ([1]; MDRABs, EA=95% ethanol extract): 32 µg/mL (≈ 107 µM)
MIC90 ([1]; MDRABs, EA=95% ethanol extract): 32 µg/mL (≈ 107 µM)
MIC Range ([1]; MDRABs, EA=95% ethanol extract): 1 to 32 µg/mL
MIC50 [1, 4]: 32 µg/mL (≈ 107 µM)
MIC90 [1, 4]: 32 µg/mL (≈ 107 µM)
MIC Range [1, 4]: 1 to 32 µg/mL
MIC50 [1, 5]: 32 µg/mL (≈ 107 µM)
MIC90 [1, 5]: 32 µg/mL (≈ 107 µM)
MIC Range [1, 5]: 1 to 32 µg/mL
MIC50 [1, 6]: 32 µg/mL (≈ 107 µM)
MIC90 [1, 6]: 32 µg/mL (≈ 107 µM)
MIC ([2]; EA=10% ethanol extract, read-out: MIC): 1 µg/mL (≈ 3.34 µM)
MIC ([2]; EA=60% ethanol extract, read-out: MIC): 1 µg/mL (≈ 3.34 µM)
MIC ([2]; EA=95% ethanol extract, read-out: MIC): 1 µg/mL (≈ 3.34 µM)
MIC ([2]; EA=P. clypearia 10% ethanol extract, read-out: MIC (single use)): 4 µg/mL (≈ 13.4 µM)
MIC ([2]; EA=P. clypearia water extract, read-out: MIC (single use)): 4 µg/mL (≈ 13.4 µM)
MIC ([2]; EA=water extract, read-out: MIC): 1 µg/mL (≈ 3.34 µM)
MIC ([2]; single use, EA = 60% ethanol extract, read-out: MIC): 4 µg/mL (≈ 13.4 µM)
MIC ([2]; single use, EA = 95% ethanol extract, read-out: MIC): 4 µg/mL (≈ 13.4 µM)
MIC50 of the antibiotic after combined use [3, 7]: 2 µg/mL
MIC90 of the antibiotic after combined use [3, 7]: 16 µg/mL
reduction of the antibiotic's MIC50 vs single use [3, 7]: 93.75%
reduction of the antibiotic's MIC90 vs single use [3, 7]: 75%
MIC50 of the antibiotic after combined use [3, 8]: 2 µg/mL
MIC90 of the antibiotic after combined use [3, 8]: 16 µg/mL
reduction of the antibiotic's MIC50 vs single use [3, 8]: 93.75%
reduction of the antibiotic's MIC90 vs single use [3, 8]: 75%
MIC50 of the antibiotic after combined use [3, 9]: 4 µg/mL
MIC90 of the antibiotic after combined use [3, 9]: 16 µg/mL
reduction of the antibiotic's MIC50 vs single use [3, 9]: 75%
reduction of the antibiotic's MIC90 vs single use [3, 9]: 75%
MIC50 of the antibiotic after combined use [3, 10]: 2 µg/mL
MIC90 of the antibiotic after combined use [3, 10]: 16 µg/mL
reduction of the antibiotic's MIC50 vs single use [3, 10]: 93.75%
reduction of the antibiotic's MIC90 vs single use [3, 10]: 75%
combined-use MIC ([3]; strain P1): 16 µg/mL
combined-use MIC ([3]; strain P2): 2 µg/mL
combined-use MIC ([3]; strain P3): 2 µg/mL
combined-use MIC ([3]; strain P4): 2 µg/mL
combined-use MIC ([3]; strain P5): 16 µg/mL
combined-use MIC ([3]; strain P6): 2 µg/mL
combined-use MIC ([3]; strain P7): 2 µg/mL
combined-use MIC ([3]; strain P8): 2 µg/mL
combined-use MIC ([3]; strain P9): 16 µg/mL
combined-use MIC ([3]; strain P10): 16 µg/mL
combined-use MIC ([3]; strain P11): 4 µg/mL
combined-use MIC ([3]; strain P12): 2 µg/mL
combined-use MIC ([3]; strain P13): 2 µg/mL
combined-use MIC ([3]; strain P14): 4 µg/mL
combined-use MIC ([3]; strain P15): 8 µg/mL
combined-use MIC ([3]; strain P16): 2 µg/mL
combined-use MIC ([3]; strain P17): 4 µg/mL
combined-use MIC ([3]; strain P18): 4 µg/mL
combined-use MIC ([3]; strain P19): 4 µg/mL
combined-use MIC ([3]; strain P20): 2 µg/mL
SMILES: C[C@@H](O)[C@H]1C(=O)N2C(C(=O)O)=C(SCCN=CN)C[C@H]12 [IMP, imipenem]
FIC, all strains [3, 7]: ≤ 2
share of strains with FIC ≤ 0.5 [3, 7]: 50%
FIC, all strains [3, 8]: ≤ 2
share of strains with FIC ≤ 0.5 [3, 8]: 15%
FIC, all strains [3, 9]: ≤ 2
share of strains with FIC ≤ 0.5 [3, 9]: 40%
FIC, all strains [3, 10]: ≤ 2
share of strains with FIC ≤ 0.5 [3, 10]: 40%
